Assay results from patent publication US20220274947A1, “NOVEL HETEROARYL-TRIAZOLE COMPOUNDS AS PESTICIDES” (Bayer Aktiengesellschaft, priority 2019, published 2022).

Experiments:
Format in all cases: in vivo
Rhipicephalus microplus [1] = assay: Rhipicephalus (Boophilus) microplus injection test (BOOPMI Inj); settings: 168 h, injection into adult engorged female ticks, egg deposition after 7 days, read-out: activity (efficacy: 100% means all eggs are infertile); for pest or weed control at 0.004 mg: application rate 4 μg/tick; for pest or weed control at 0.02 mg: application rate 20 μg/tick
Experimental: Rhipicephalus (Boophilus) Microplus—Injection Test (BOOPMI Inj)
Solvent: dimethyl sulfoxide
To produce a suitable preparation of active compound, 10 mg of active compound are dissolved in 0.5 mL solvent, and the concentrate is diluted with solvent to the desired concentration.
Five adult engorged female ticks (Rhipicephalus microplus) are injected with 1 μL compound solution into the abdomen. The ticks are transferred into replica plates and incubated in a climate chamber.
After 7 days egg deposition of fertile eggs is monitored. Eggs where fertility is not visible are stored in a climate chamber till hatching after about 42 days. An efficacy of 100% means all eggs are infertile; 0% means all eggs are fertile.

Rhipicephalus microplus [2] = assay: Rhipicephalus (Boophilus) microplus in-vitro contact test, larval cattle tick, strain Parkhurst (BOOPMI Cont); settings: application rate 5 μg/cm^2 (=500 g/ha), tick larvae, after 48 hours, read-out: activity (efficacy: 100% means all larvae are dead or moribund)
Experimental: Rhipicephalus (Boophilus) Microplus—In-Vitro Contact Tests Larval Cattle Tick (Strain Parkhurst, Resistant Against Synthetic Pyrethroids) (BOOPMI Cont)
9 mg compound is solved in 1 mL acetone and diluted with acetone to the desired concentration. 250 μL of the test solution is filled in 25 mL glass test tubes and homogeneously distributed on the inner walls by rotation and tilting on a shaking device (2 h at 30 rpm). With a compound concentration of 900 ppm, an inner surface of 44.7 cm^2 and a homogeneous distribution, a dose of 5 μg/cm^2 is achieved.
After the solvent has evaporated, each test tube is filled with 20-50 cattle tick larvae (Rhipicephalus microplus), closed with a perforated lid and incubated in a horizontal position at 85% relative humidity and 27° C. in an incubator. After 48 hours efficacy is determined. The larvae are patted on the ground of the tubes and negative geotactic behavior is recorded.
An efficacy of 100% means all larvae are dead or moribund; 0% means no larvae are dead or moribund.

Diabrotica balteata = Diabrotica balteata spray test; settings: 168 h, wheat seeds, larvae, after 7 days, read-out: activity (efficacy: 100% means all seedlings have grown up like in the untreated, uninfected control); for pest or weed control at 32 µg/disc, 100 g/ha: application rate 100 g/ha (=32 μg/well); for pest or weed control at 160 µg/disc, 500 g/ha: application rate 500 g/ha (=160 μg/well)
Experimental: Diabrotica balteata—Spray Test Solvent: 78.0 parts by weight of acetone • • 1.5 parts by weight of dimethylformamide Emulsifier: alkylarylpolyglycol ether
(§1) To produce a suitable preparation of active compound, 1 part by weight of active compound is mixed with the stated amount of solvent, and the concentrate is diluted with water, containing an emulsifier concentration of 1000 ppm, to the desired concentration. Further test concentrations are prepared by dilution with emulsifier containing water.
Soaked wheat seeds (Triticum aestivum) are placed in a multiple well plate filled with agar and some water and are incubated for 1 day to germinate (5 seeds per well). The germinated wheat seeds are sprayed with a test solution containing the desired concentration of the active ingredient. Afterwards each unit is infected with 10-20 larvae of the banded cucumber beetle (Diabrotica balteata).
After 7 days efficacy in % is determined. 100% means all the seedlings have grown up like in the untreated, uninfected control; 0% means none of the seedlings have grown.

Spodoptera frugiperda = Spodoptera frugiperda spray test; settings: in Zea mays, 168 h, read-out: activity (mortality)
Experimental: Spodoptera Fruaiperda—Spray Test
Solvent: 78.0 parts by weight acetone • 1.5 parts by weight dimethylformamide Emulsifier: alkylarylpolyglycol ether
as §1, with “solvents” for “solvent,”, “and” for “and the concentrate”
Maize (Zea mays) leaf sections are sprayed with a preparation of the active ingredient of the desired concentration. Once dry, the leaf sections are infested with fall armyworm larvae (Spodoptera frugiperda).
After 7 days mortality in % is determined. 100% means all caterpillars have been killed and 0% means none of the caterpillars have been killed.

Rhipicephalus sanguineus = Rhipicephalus sanguineus in-vitro contact test, adult brown dog ticks (RHIPSA Cont); settings: 48 h, after 48 hours, read-out: activity (efficacy: 100% means all ticks are dead or moribund); for pest or weed control at 5 µg/cm2, 500 g/ha: application rate 5 μg/cm^2 (=500 g/ha); for pest or weed control at 1 µg/cm2, 100 g/ha: application rate 1 μg/cm^2 (=100 g/ha)
Experimental: Rhipicephalus sanguineus-In-Vitro Contact Tests with Adult Brown Dog Ticks ([…] Cont) 9 mg compound is solved in 1 mL acetone and diluted with acetone to the desired concentration. 250 μL of the test solution is filled in 25 mL glass test tubes and homogeneously distributed on the inner walls by rotation and tilting on a shaking device (2 h at 30 rpm). […] After 48 hours efficacy is determined. The ticks are patted on the ground of the tubes and are incubated on a heating plate at 45-50° C. for at most 5 minutes. Immotile or uncoordinated moving ticks, which are not able to escape the heat by climbing upwards, are marked as dead or moribund.

| SMILES | pest or weed control at 0.004 mg (Rhipicephalus microplus [1]) [%] | pest or weed control at 0.02 mg (Rhipicephalus microplus [1]) [%] | pest or weed control at 5 µg/cm2 (Rhipicephalus microplus [2]) [%] | pest or weed control at 32 µg/disc, 100 g/ha (Diabrotica balteata) [%] | mortality at 100 g/ha (Spodoptera frugiperda) [%] | pest or weed control at 160 µg/disc, 500 g/ha (Diabrotica balteata) [%] | mortality at 500 g/ha (Spodoptera frugiperda) [%] | pest or weed control at 5 µg/cm2, 500 g/ha (Rhipicephalus sanguineus) [%] | pest or weed control at 1 µg/cm2, 100 g/ha (Rhipicephalus sanguineus) [%] |
| --- | --- | --- | --- | --- | --- | --- | --- | --- | --- |
| CC(NC(=O)c1cc(C(F)(F)F)cc(C(F)(F)F)c1)c1nc(Cl)nn1-c1ccc(C#N)cn1 (racemic) [I-39, 3,5-di(trifluoromethyl)-N-{1-[3-chloro-1-(3-cyano-pyridin-6-yl)-1H-1,2,4-triazol-5-yl]ethyl}-benzamide] | 100 | 100 | 100 | 100 | 100 |  |  |  |  |
| CC(C)Oc1nc([C@H](C)NC(=O)c2cc(Cl)cc(C(F)(F)F)c2)n(-c2ccc(C#N)cn2)n1 [I-16] | 100 | 100 | 100 |  |  | 100 | 100 |  |  |
| CC(C)Oc1nc([C@H](C)NC(=O)c2cc(C(F)(F)F)cc(C(F)(F)F)c2)n(-c2ccc(C#N)cn2)n1 [I-17] | 100 | 100 | 100 | 100 | 100 | 100 | 100 |  |  |
| CC(C)Oc1nc([C@H](C)NC(=O)c2cc(Cl)cc(Cl)c2)n(-c2ccc(C#N)cn2)n1 [I-18] |  | 100 | 90 |  |  | 100 | 83 |  |  |
| CC(C)c1nc([C@H](C)NC(=O)c2cccc(C(F)(F)F)n2)n(-c2ccc(C#N)cn2)n1 [I-22] | 80 | 100 |  | 100 |  |  |  |  |  |
| CC(NC(=O)c1cc(Br)cc(C(F)(F)F)c1)c1nc(Cl)nn1-c1ccc(C#N)cn1 (stereo not drawn) [I-40] | 100 | 100 | 100 | 100 | 100 |  |  | 100 |  |
| C[C@H](NC(=O)c1cc(Cl)cc(SC(F)(F)F)c1)c1nc(C2CC2)nn1-c1ccc(C#N)cn1 [I-45] | 100 |  | 100 | 100 | 100 |  |  |  |  |
| CC(NC(=O)c1cc(Cl)cc(C(F)(F)F)c1)c1nc(Br)nn1-c1ccc(C#N)cn1 (stereo not drawn) [I-49] |  |  | 100 | 100 | 100 |  |  |  |  |
| CC(NC(=O)c1cc(Cl)nc(C(F)(F)F)c1)c1nc(Cl)nn1-c1ccc(C#N)cn1 (stereo not drawn) [I-52] |  |  | 100 | 100 | 100 |  |  |  |  |
| CC(NC(=O)c1cc(Br)cc(Br)c1)c1nc(Br)nn1-c1ccc(C#N)cn1 (stereo not drawn) [I-53] |  |  | 100 | 100 | 100 |  |  |  |  |
| CC(NC(=O)c1cc(Br)cc(Br)c1)c1nc(Cl)nn1-c1ccc(C#N)cn1 (stereo not drawn) [I-54] |  |  | 100 |  | 100 |  |  |  |  |
| CC(NC(=O)c1cc(Br)cc(OC(F)(F)F)c1)c1nc(Cl)nn1-c1ccc(C#N)cn1 (stereo not drawn) [I-55] |  |  | 80 | 100 | 100 |  |  |  |  |
| CC(NC(=O)c1cc(Br)cc(OC(F)(F)F)c1)c1nc(Br)nn1-c1ccc(C#N)cn1 (stereo not drawn) [I-56] |  |  | 100 | 100 | 100 |  |  |  |  |
| CC(NC(=O)c1cc(Cl)cc(C(F)(F)F)c1)c1nc(Cl)nn1-c1ccc(C#N)cn1 (stereo not drawn) [I-57] |  |  | 100 | 100 | 100 |  |  |  |  |
| CC(NC(=O)c1cc(Cl)cc(Cl)c1)c1nc(Cl)nn1-c1ccc(C#N)cn1 (stereo not drawn) [I-58] |  |  | 100 |  | 83 |  |  |  |  |
| CC(NC(=O)c1cncc(C(F)(F)F)c1)c1nc(Cl)nn1-c1ccc(C#N)cn1 (stereo not drawn) [I-59] | 80 |  | 100 |  | 100 |  |  |  |  |
| CC(NC(=O)c1cc(Cl)cc(OC(F)(F)F)c1)c1nc(Cl)nn1-c1ccc(C#N)cn1 (stereo not drawn) [I-60] |  |  | 100 | 100 | 83 |  |  |  |  |
| COc1nc([C@H](C)NC(=O)c2cc(F)cc(C#N)c2)n(-c2ccc(C#N)cn2)n1 [I-62] | 100 |  | 90 | 100 |  |  |  |  |  |
| Cc1nc([C@H](C)NC(=O)c2cccc(Cl)n2)n(-c2ccc(C#N)cn2)n1 [II-51] | 100 | 100 | 90 |  |  |  |  | 100 | 100 |
| Cc1nc([C@H](C)NC(=O)c2cc(Br)cc(C(F)(F)F)n2)n(-c2ccc(C#N)cn2)n1 [II-55] | 100 | 100 | 100 |  |  |  |  |  |  |
| Cc1nc([C@H](C)NC(=O)c2ccc(Cl)cn2)n(-c2ccc(C#N)cn2)n1 [II-56] | 80 | 100 | 80 |  |  |  |  |  |  |
| C[C@H](NC(=O)c1cc(Br)cc(C(F)(F)F)n1)c1ncnn1-c1ccc(C#N)cn1 [II-58] |  | 0 |  |  |  |  |  |  |  |
| C[C@H](NC(=O)c1cc(Cl)cc(C(F)(F)C(F)(F)F)c1)c1ncnn1-c1nccs1 [II-66] | 100 | 100 | 100 | 100 |  | 100 | 100 |  |  |
| C[C@H](NC(=O)c1cc(Cl)cc(C(F)(F)C(F)(F)F)c1)c1ncnn1-c1ncc(Br)s1 [II-67] | 100 | 100 | 100 |  |  | 100 | 100 |  |  |
| C[C@H](NC(=O)c1cc(Cl)cc(C(F)(F)C(F)(F)F)c1)c1ncnn1-c1ncc(Cl)s1 [II-68] | 80 | 100 | 100 | 100 |  | 100 | 83 | 100 |  |
| CC(C)Oc1cc(Br)cc(C(=O)N[C@@H](C)c2ncnn2-c2ccc(C#N)cn2)c1 [II-108] | 80 |  | 90 | 100 | 100 |  |  |  | 80 |
| C[C@H](NC(=O)c1cc(Br)cc(Br)c1)c1ncnn1-c1ccc(C#N)cn1 [II- 13] |  |  |  |  |  | 100 |  |  |  |
| C[C@H](NC(=O)c1cc(Cl)cc(OC(F)(F)F)c1)c1ncnn1-c1cc(NC(=O)c2ccc(F)cc2)ccn1 [II- 20] |  |  |  |  |  |  | 100 |  |  |
